Laboratory results from US12065468B2, “Heme-binding small peptide” (priority 2021, dated 2024).
“Also recorded” adds a separate entry of the source.

Key:
[1] = tested on: Haemophilus influenzae; test: Cell viability assay for H. influenzae; assay type: cell-based; details: 24 hours, BHI with 7.5 μM hemin
Method: Cell viability assays for H. influenza and P. gingivalis: Haemophilus influenzae Rd [KW20] was obtained from ATCC (51907). Standard growth and culturing techniques were followed as described previously^92. Cultures were grown in Brain Heart Infusion broth (BHI) supplemented with 7.5 μM of hemin and 2 μg/ml NAD with or without the addition of peptide for 24 hours. The number of viable cells for every reaction mixture was then determined by serially diluting and spotting 10-μl aliquots in triplicates on BHI agar plates supplemented with 15 μM hemin and 3 μM NAD. Porphyromonas gingivalis 2561 was obtained from ATCC (33277). Pre-reduced, anaerobically sterilized Brucella Broth and BRU—Brucella Blood Agar—were purchased from Anaerobe systems (CA, USA). They were opened just before use. Static cultures and plates were incubated at 37° C. in an incubation chamber from BD GasPak™ EZ Container Systems. Anaerobic conditions were maintained by using BD BBL CO2 gas generators and BD BB GasPak™ CO2 indicators. Cultures were grown anaerobically in Brucella Broth with or without addition of peptides for 48 hours and viable cells for every reaction mixture were then determined by serially diluting and spotting 10-μ1 aliquots in triplicates on Brucella Blood Agar.

[2] = tested on: Toxoplasma gondii; test: T. gondii plaque assay on human foreskin fibroblasts; assay type: cell-based; details: 6 hr. pre-treatment of parasites
Method: Parasite and host cell culture: T. gondii parasites (strain RH, ATCC 50838) were grown in human foreskin fibroblasts (HFFs) maintained in DMEM (GIBCO) supplemented with 3% inactivated fetal calf serum (IFS) and 10 μg/mL gentamicin (Thermo Fisher Scientific), referred to as D3. Where noted, DMEM supplemented with 10% IFS and 10 μg/mL gentamicin was used, referred to as D10.
Plaque Assays: Freshly lysed parasites were filtered through 5 μm filters and spun down at 1000×g and 18° C. for 10 min. Parasites were resuspended to 6E6 parasites/mL in Fluorobrite™ media supplemented with 3% IFS. Parasites were incubated with either peptide or vehicle for 6 hours at 37° C. and 5% CO2. Parasites were then spun down, washed once in 2 mL of Fluorobrite™ supplemented with 3% IFS, and resuspended in 1 mL of media. 2000 parasites were inoculated into each well of 6-well plates of HFFs maintained in D10 and allowed to grow undisturbed for 9 days. Plates were washed with PBS and fixed for 10 min at room temperature with 100% ethanol. Monolayers were visualized by staining for 5 min at room temperature with crystal violet solution, followed by two washes with PBS, one wash with water, and drying overnight.

[3] = tested on: Human red blood cells (hRBC); test: Haemolysis assay; assay type: cell-based; details: 1.5 h at 37° C., 4% hRBC; listed as L-NCR247
Method: Haemolysis assay: Standard methods of hemolysis assay as previously published was followed^96. Human red blood cells (hRBC) were washed three times with phosphate-buffered saline (PBS: 10 mM Na2HPO4, 1.76 mM K2HPO4, pH 7.4, containing […], and 2.7 mM KCl). Two-fold serial dilutions of the peptide solutions were then added to 50 μl aliquots of hRBC in PBS to adjust a final volume to 100 μl and hRBC concentration to 4% (v/v) in each well of a 96-well plate. The suspension was incubated for 1.5 h at 37° C. under stirring at 1000 rpm. The plates were centrifuged at 2000 g for 5 min. Supernatant aliquots of 50 μl were transferred into flat-bottomed 96-well microplates, and the release of hemoglobin was monitored by measuring the absorbance at 405 nm in a microplate reader. hRBC in PBS (0% lysis control) and 0.1% Triton X-100 (100% lysis control) were used as negative and positive controls, respectively. Hemolytic activity was expressed as a percentage of hemolysis calculated according to the following equation: Hemolysis (%)=(OD405nm sample—OD405nm 0% lysis control)/(OD405nm 100% lysis control−OD405nm 0% lysis control)*100.

[4] = tested on: S. meliloti; test: Cell cycle progression by flow cytometry on synchronized cultures; assay type: cell-based, Sinorhizobium meliloti; details: synchronized culture, 4 uM; listed as L-NCR247
From the text: FIG. 14. […] Cell cycle progression analysis using flow cytometry on synchronized cultures of Wild type S. meliloti and bacA mutant of S. meliloti treated with L or D-NCR247 when compared to untreated cells. Dark grey represents percentage of cells with 1 copy of genome and light grey represents percentage of cells with 2 copies of genomes. […] Data are presented as average of three biological replicates.
Since NCR247 treatment leads to gene expression change in several genes of the CtrA regulon, we investigated the CtrA regulon and the cell division inhibition role of NCR247. […] In addition, this phenotype is retained in a peptide transporter bacA mutant indicating cell division inhibition happens due to protein-peptide interaction outside the cytoplasm.

[5] = tested on: ndvA (FeuP regulated), SMc 01581 (ExoS regulated); test: qRT-PCR of FeuP and ExoS regulated genes; assay type: cell-based, Sinorhizobium meliloti; details: 2 μM, 30 mins; listed as L-NCR247
From the text: FIG. 17. […] The data are expressed as starting quantities (SQ) of respective mRNAs normalized to the control gene SMc00128 and are presented as average of three technical replicates FIG. 18. NCR247 binds heme and this heme sequestration leads to an iron starvation response in S. meliloti and this happens in the cytoplasm since a bacA mutant is defective in inducing iron import genes. […] The data are expressed as starting quantities (SQ) of respective mRNAs normalized to the control gene SMc00128 and are presented as average of three technical replicates. […] Data are presented as average of three technical replicates
RNA isolation and qRT-PCR analysis: Cells were grown in LB until they reached an O.D.600 nm of 0.2. Then cells were spun down and suspended in minimal media with or without appropriate FeSO4 concentrations for 1 hour. NCR247 was then added and 5 ml of appropriate cultures were spun down at given time intervals. Total RNA was extracted using Trizol™ (Thermo Fisher Scientific) method. Qiagen RNeasy™ kit was used to purify the RNA. […] The standard curve method was used for relative quantification. […] This curve was then used for extrapolating relative expression level of each gene of interest in a particular sample to obtain the starting quantities (SQ). […] These normalized values are then expressed as an average of triplicates, with standard deviation (s.d.) represented by the error bars. […]

[6] = Water solubility

Question: Which results are given for RNGCIVDPRCPYQQCRRPLYCRRR [NCR247]?
Answer: growth / viable cell number of H. influenzae [1]: can prevent the growth; also recorded: can block the growth; growth / viable cell number of H. influenzae ([1]; listed as L-NCR247): Reduction of viable cell number; capacity of T. gondii to form plaques [2]: massive reduction in the capacity of the parasite to form plaques; haemolytic activity [3]: did not detect haemolytic activities; also recorded: negligible hemolysis; cell division inhibition [4]: leads to cell division inhibition; also recorded: more percentage of cells having 2 copies of genome; expression of FeuP and ExoS regulated genes [5]: increased in expression; also recorded: increase in expression of ndvA; water solubility [6]: highly water soluble
